We go through seven compounds from US12193460B2, “Highly soluble steviol glycosides” (PureCircle USA Inc., priority 2016, dated 2025).

Structures are written as SMILES. Read-outs that look alike come from different tables or passages of the source.

The conditions of data set [1]: cited from earlier work; for Rate of dissolution in H2O at 25° C.: grade in words.
For data set [2] the following is noted: Prakash et al., 2008, cited from earlier work.
Data set [3] can be described thus: Water solubility in RO water at room temperature (25° C.). It is filed as physicochemical. The note with it: g per 100 g solvent. How it is done:
Hereinafter, unless specified otherwise, the solubility of material is determined in RO (reverse osmosis) water at room temperature (25° C.). Where the solubility is expressed as “%” it to be understood as number of grams of material soluble in 100 grams of solvent.
The material is deemed soluble at certain concentration if the produced solution has <10 FAU (Formazin Attenuation Unit) turbidity value.

For data set [4] the following is noted: room temperature (25° C.); related art; cited from earlier work.

As to `C=C1C[C@@]23CC[C@H]4[C@@](C)(CCC[C@@]4(C)C(=O)O[C@@H]4O[C@H](CO)[C@@H](O)[C@H](O)[C@H]4O)[C@@H]2CC[C@]1(O[C@@H]1O[C@H](CO)[C@@H](O)[C@H](O[C@@H]2O[C@H](CO)[C@@H](O)[C@H](O)[C@H]2O)[C@H]1O[C@@H]1O[C@H](CO)[C@@H](O)[C@H](O)[C@H]1O)C3` [Form 1, Rebaudioside A], the “Rate of dissolution in H2O at 25° C.” value in data set [1] was “Very low”. Further, in data set [1] (in 60 minutes), the “Rate of dissolution in H2O at 25° C. (% dissolved)” value (“Rate of dissolution … (% dissolved)” for short) is reported as “(<0.2% in 60”. In addition, in data set [2] (listed as hydrate form of Rebaudioside A), the “solubility (in words)” value is reported as “lowest solubility”.

With `C=C1C[C@@]23CC[C@H]4[C@@](C)(CCC[C@@]4(C)C(=O)O[C@@H]4O[C@H](CO)[C@@H](O)[C@H](O)[C@H]4O)[C@@H]2CC[C@]1(O[C@@H]1O[C@H](CO)[C@@H](O)[C@H](O[C@@H]2O[C@H](CO)[C@@H](O)[C@H](O)[C@H]2O)[C@H]1O[C@@H]1O[C@H](CO)[C@@H](O)[C@H](O)[C@H]1O)C3` [Form 4, Rebaudioside A], in data set [1], the “Rate of dissolution in H2O at 25° C.” value is reported as “High”. For the same compound, the “Rate of dissolution … (% dissolved)” value in data set [1] (in 5 minutes) is on record as more than 35%. Also, the “solubility (in words)” value in data set [2] (listed as rebaudioside A amorphous forms) is recorded as “high solubility”.

Turning to `C=C1C[C@@]23CC[C@H]4[C@@](C)(CCC[C@@]4(C)C(=O)O[C@@H]4O[C@H](CO)[C@@H](O)[C@H](O[C@@H]5O[C@H](CO)[C@@H](O)[C@H](O)[C@H]5O)[C@H]4O[C@@H]4O[C@H](CO)[C@@H](O)[C@H](O)[C@H]4O)[C@@H]2CC[C@]1(O[C@@H]1O[C@H](CO)[C@@H](O)[C@H](O[C@@H]2O[C@H](CO)[C@@H](O)[C@H](O)[C@H]2O)[C@H]1O[C@@H]1O[C@H](CO)[C@@H](O)[C@H](O)[C@H]1O)C3` [rebaudioside M], in data set [3], the solubility in water is given as 2%.

Consider `C=C1C[C@@]23CC[C@H]4[C@@](C)(CCC[C@@]4(C)C(=O)O[C@@H]4O[C@H](CO)[C@@H](O)[C@H](O)[C@H]4O)[C@@H]2CC[C@]1(O[C@@H]1O[C@H](CO)[C@@H](O)[C@H](O[C@@H]2O[C@H](CO)[C@@H](O)[C@H](O)[C@H]2O)[C@H]1O[C@@H]1O[C@H](CO)[C@@H](O)[C@H](O)[C@H]1O)C3` [Form 3, Rebaudioside A], for which the “Rate of dissolution in H2O at 25° C.” value in data set [1] is reported as “High”. Further, the “Rate of dissolution … (% dissolved)” value in data set [1] (in 5 minutes) is on record as more than 30%.

On to `C=C1C[C@@]23CC[C@H]4[C@@](C)(CCC[C@@]4(C)C(=O)O[C@@H]4O[C@H](CO)[C@@H](O)[C@H](O)[C@H]4O)[C@@H]2CC[C@]1(O[C@@H]1O[C@H](CO)[C@@H](O)[C@H](O[C@@H]2O[C@H](CO)[C@@H](O)[C@H](O)[C@H]2O)[C@H]1O[C@@H]1O[C@H](CO)[C@@H](O)[C@H](O)[C@H]1O)C3` [Form 2, Rebaudioside A], for which the “Rate of dissolution in H2O at 25° C.” value in data set [1] is listed as “Intermediate”. Besides, the “Rate of dissolution … (% dissolved)” value in data set [1] (in 5 minutes) is given as “(<30% in 5”.

`C=C1C[C@@]23CC[C@H]4[C@@](C)(CCC[C@@]4(C)C(=O)O[C@@H]4O[C@H](CO)[C@@H](O)[C@H](O)[C@H]4O[C@@H]4O[C@H](CO)[C@@H](O)[C@H](O)[C@H]4O)[C@@H]2CC[C@]1(O[C@@H]1O[C@H](CO)[C@@H](O)[C@H](O[C@@H]2O[C@H](CO)[C@@H](O)[C@H](O)[C@H]2O)[C@H]1O[C@@H]1O[C@H](CO)[C@@H](O)[C@H](O)[C@H]1O)C3` [Rebaudioside D]: the water solubility result in data set [4] is “less than 0.05%”.

Take `C=C1C[C@@]23CC[C@H]4[C@@](C)(CCC[C@@]4(C)C(=O)O[C@@H]4O[C@H](CO)[C@@H](O)[C@H](O[C@@H]5O[C@H](CO)[C@@H](O)[C@H](O)[C@H]5O)[C@H]4O[C@@H]4O[C@H](CO)[C@@H](O)[C@H](O)[C@H]4O)[C@@H]2CC[C@]1(O[C@@H]1O[C@H](CO)[C@@H](O)[C@H](O[C@@H]2O[C@H](CO)[C@@H](O)[C@H](O)[C@H]2O)[C@H]1O[C@@H]1O[C@H](CO)[C@@H](O)[C@H](O)[C@H]1O)C3` [Rebaudioside M]: the solubility in water in data set [3] (listed as Crystalline Rebaudioside M) was 0%-0.1. Also, the water solubility result in data set [4] was “about 0.1%”.
